Source: US20230141718A1, “METHODS OF TREATING GLIOBLASTOMA” (CELGENE QUANTICEL RESEARCH, INC., priority 2021, published 2023)

Legend:
[1] = cited from earlier work
[2] = test system: glioblastoma; details: in vivo; cited from earlier work
[3] = Safety (TRAEs/TEAEs), CC-90010-GBM-002 Parts A and B; format: in vivo
Text: This was then followed by a break in treatment therapy, e.g., from 1 to up to 4 weeks. […] Adjuvant therapy cycles were repeated from 2 to 6 times. After adjuvant therapy, was a monotherapy treatment.
The demographics and characteristics of treated patients are described in the below table.

SMILES: C#Cc1cccc(Nc2ncnc3cc(OCCOC)c(OCCOC)cc23)c1 [erlotinib]
- tissue:plasma ratio ([1]; brain tumor tissue): 0.06-0.08

SMILES: CS(=O)(=O)CCNCc1ccc(-c2ccc3ncnc(Nc4ccc(OCc5cccc(F)c5)c(Cl)c4)c3c2)o1 [lapatinib]
- antitumor activity in glioblastoma [2]: neither lapatinib nor gefitinib have shown evidence of antitumor activity
- tissue:plasma ratio, mean ([1]; brain tumor tissue): 13.0

SMILES: COc1cc2ncnc(Nc3ccc(F)c(Cl)c3)c2cc1OCCCN1CCOCC1 [gefitinib]
- antitumor activity in glioblastoma [2]: neither lapatinib nor gefitinib have shown evidence of antitumor activity
- median concentration in tumor tissue ([1]; glioblastoma tumor tissue): 4100 ng/g
- median concentration in plasma ([1]; in vivo): 181 ng/mL

SMILES: O=C(c1cc(Cc2n[nH]c(=O)c3ccccc23)ccc1F)N1CCN(C(=O)C2CC2)CC1 [olaparib]
- tissue:plasma ratio, mean ([1]; brain tumor tissue): 0.25

SMILES: Cn1nnc2c(C(N)=O)ncn2c1=O [TMZ, 3,4-dihydro-3-methyl-4-oxoimidazo[5,1-d]-as-tetrazine-8-carboxamide, reference compound]
- patients with TRAEs related to TMZ ([3]; Part B arm A): 75%
- patients with nausea related to TMZ ([3]; Part B arm A): 46%
- patients with thrombocytopenia related to TMZ ([3]; Part B arm A): 46%
- patients with TRAEs related to TMZ ([3]; Part B arm B): 73%
- patients with thrombocytopenia related to TMZ ([3]; Part B arm B): 40%
